Read-outs that look alike come from different tables or passages of the source.

The target of experiment [1] is T1, Rat Striatal Nicotinic Acetylcholine Receptors ([^3H]nicotine binding sites) (Rattus norvegicus, UniProt P09483+P12390).
T1 construct: Striata from two rats were dissected, pooled, and homogenized; from tissue; host or cells: rat striatum membranes
Briefly: biochemical. As to conditions: rat striatal membranes, 3 nM [^3H]-nicotine; read-out: Ki, specific binding of [^3H]-nicotine. The protocol:
Striata from two rats were dissected, pooled, and homogenized with a Tekmar polytron in 10 volumes of ice-cold modified Krebs-HEPES buffer (20 mM HEPES, 118 mM NaCl, 4.8 mM KCl, 2.5 mM CaCl2, 1.2 mM MgSO4, adjusted to pH 7.5). The homogenates were incubated at 37° C. for five minutes and centrifuged at 15,000 g for 20 minutes. The pellet was resuspended in ten volumes of ice-cold MilliQ water, incubated for five minutes at 37° C., and centrifuged at 15,000 g for 20 minutes The second pellet was then resuspended in ten volumes of fresh ice-cold 10% Krebs-HEPES buffer, incubated at 37° C., and centrifuged at 15,000 g for 20 minutes. The latter sequence of resuspension, incubation, and centrifugation was repeated. The pellet was frozen under fresh 10% Krebs-HEPES buffer and stored at −40° C. until assay. Upon assay, the pellet was resuspended in the Krebs-HEPES buffer, incubated at 37° C. for five minutes, and centrifuged at 15,000 g for 20 minutes. The final pellet was resuspended in 3.6 ml ice-cold MilliQ water which provided for approximately 200 μg protein per 100 μl aliquot. Competition assays were performed in duplicate in a final volume of 200 μl Krebs-HEPES buffer containing […] Tris buffer (pH 7.5 at 4° C.). […] After a 90 minute incubation at 4° C., reactions were terminated by dilution of the samples with 3 ml of ice-cold Krebs-HEPES buffer followed immediately by filtration through Whatman GF/B glass fiber filters (presoaked in 0.5% polyethyleneimine) using a Brandel Cell Harvester. Filters were rinsed three times with 3 ml of ice-cold Krebs-HEPES buffer, transferred to scintillation vials, and 5 ml scintillation cocktail (Research Products International Corp., Mt. Prospect, Ill.) added. […] Binding parameters were determined using the weighted, least squares non-linear regression.

Experiment [2] addresses nAChR mediating nicotine-evoked [^3H]DA release (α3β2* receptor subtype). It counts as cell-based, rat. As to conditions: rat striatal slices, nicotine 10 μM; read-out: IC50, S-(−)-nicotine-evoked [^3H]DA release. The protocol: Slices were rinsed with 15 mL of fresh buffer and incubated for an additional 30 minutes in fresh buffer containing 0.1 μM [^3H]DA (6 slices/3 ml). Subsequently, slices were rinsed with 15 ml of fresh buffer and transferred to a glass superfusion chamber.
Radioactivity in the superfusate and tissue samples was determined by liquid scintillation spectroscopy. […] Basal [^3H]outflow was calculated from the average of the tritium collected in the two five minute samples just before addition of the bis-alkyl pyridino analog. […] [^3H]Overflow was calculated by subtracting the [^3H]outflow during an equivalent period of prestimulation from the values in samples collected during and after drug exposure. Inasmuch as the radiolabelled compounds were not separated and identified, the tritium collected in superfusate is referred to as either [^3H]outflow or [^3H]overflow, rather than as [^3H]DA.

The target in experiment [3] is T2, α7-type neuronal nicotinic acetylcholine receptors (Rattus norvegicus, UniProt Q05941).
T2 construct: Rat brain was dissected into the whole brain tissue without cortex, striatum and cerebellum; from tissue; host or cells: rat brain (without cortex, striatum, cerebellum) membranes
The format is binding. The protocol: Rat brain was dissected into the whole brain tissue without cortex, striatum and cerebellum and was frozen in liquid nitrogen and stored at −70° C. until use.
The brain tissue was homogenized with a Tekmar Polytron (setting 40) in 20 volumes of ice-cold hypotonic buffer (2 mM HEPES, 14.4 mM NaCl, 0.15 mM KCl, 0.2 mM CaCl2 and 0.1 mM MgSO4, pH=7.5). The homogenate was incubated at 37° C. for ten minutes and centrifuged at 25,000×g for 15 minutes at […] The pellet was washed three times more by resuspension in the 20 volumes of the same buffer and centrifugation at the above parameters. The final pellet was stored at −20° C. under 4.6 ml of the incubation buffer and was suspended just before the incubation with radioligand.
[^3H]MLA (25.4 Ci/mmol) was purchased from Tocris Cookson Ltd., Bristol, U.K. Binding was performed in duplicate, in a final volume of 250 μl of the incubation medium, containing 20 mM HEPES, 144 mM NaCl, 1.5 mM KCl, 2 mM CaCl2, 1 mM MgSO4 and 0.05% BSA, pH=7.5. Reaction was initiated by the addition of 100 μl of membrane suspension to the samples containing a desired concentration of test compounds and […] [^3H] MLA (final concentration) and incubated for 2 hours at room temperature. […] The binding reaction was terminated by dilution of samples with 3 ml of ice-cold incubation buffer followed by immediate filtration through presoaked in 0.5% polyethylenimine glass fiber filters (S&S, grade #32) using a Brandel harvester system. Filters were rinsed three times with 3 ml of ice-cold buffer, transferred to scintillation-vials and 4 ml of scintillation cocktail was added. Protein was measured using the Bradford dye-binding procedure with bovine serum albumin as the standard.

In a further experiment the target is [^3H]DA Uptake. Briefly: [^3H]DA uptake inhibition (Table 11). It counts as biochemical.
The target of experiment [4] is T3, α7* nAChRs (Rattus norvegicus, UniProt Q05941). As to conditions: read-out: [^3H]MLA Binding Ki.
Method: (§1) Whole brain, excluding cortex and cerebellum, was homogenized in 20 ml of ice-cold buffer, containing (in mM): 2 HEPES, 11.8 NaCl, 0.48 KCl, 0.25 CaCl2 and 0.12 MgSO4, pH 7.5. Homogenate was centrifuged (25,000 g, 15 minutes, 4° C.). Pellets were resuspended in 20 ml of buffer and incubated at 37° C., for ten minutes, cooled to 4° C. and centrifuged (25,000 g, 15 minutes, 4° C.). Pellets were resuspended and centrifuged using the same conditions. Final pellets were stored in assay buffer, containing (in mM): 20 HEPES, 118 NaCl, 4.8 KCl, 2.5 CaCl2, and 1.2 MgSO4) pH 7.5 at −70° C. Upon use, final pellets were resuspended in ˜20 ml assay buffer. […] Control was in the absence of analog. […] Incubations proceeded for 60 minutes at room temperature using 96-well plates and were terminated by harvesting on Unifilter-96 GF/B filter plates presoaked in 0.5% polyethylenimine, using a Packard FilterMate harvester.
(§2) After washing five times with 350 μl ice-cold assay buffer, filter plates were dried (60 minutes, 49° C.), bottom-sealed, and filled with Packard's MicroScint 20 cocktail (40 μl/well). After 60 minutes, filter plates were top-sealed, and radioactivity determined using a Packard TopCount. Protein concentrations were determined using bovine serum albumin as the standard.
(§3) Whole brain was homogenized in 20 ml of ice-cold buffer (in mM: 2 HEPES, 11.8 NaCl, 0.48 KCl, 0.25 CaCl2, and 0.12 MgSO4, pH 7.5). Homogenates were centrifuged (25,000 g, 15 minutes, 4° C.). Pellets were resuspended in 20 ml of buffer and incubated at 37° C., for 10 minutes, cooled to 4° C. and centrifuged (25,000 g, 15 minutes, 4° C.). Pellets were resuspended and centrifuged again using the same conditions. Final pellets were stored at −70° C. in assay buffer (in mM: 20 HEPES, 118 NaCl, 4.8 KCl, 2.5 CaCl2, and 1.2 MgSO4, pH 7.5). Upon use, final pellets were resuspended in ˜20 ml assay buffer. […] Control was in the absence of analog. […] Incubation proceeded for 60 minutes at room temperature using 96-well plates and was terminated by harvesting on Unifilter-96 GF/B filter plates, presoaked in 0.5% polyethylenimine, using a Packard FiterMate harvester. After washing 5× with 350 μl ice-cold assay buffer, filter plates were dried (60 minutes, 49° C.), bottom-sealed, and filled with Packard's MicroScint 20 cocktail (40 μl/well). After 60 minutes, filter plates were top-sealed, and radioactivity determined. Protein concentration was determined using BSA as the standard.
Experiment [5] concerns nAChR subtypes mediating nicotine-evoked [^3H]-dopamine overflow.
Method: [^3H]-Dopamine overflow from superfused striatal slices. […] Striatal coronal slices (500 μm, 4-6 mg) were obtained and incubated for 30 minutes in Krebs' buffer (in mM: 118 NaCl, 4.7 KCl, 1.2 MgCl2, 1 NaH2PO4, 1.3 CaCl2, 11.1 glucose, 25 NaHCO3, 0.11 L-ascorbic acid and 0.004 disodium EDTA, pH 7.4, saturated with 95% O2/5% CO2) in a metabolic shaker at 34° C. Slices were incubated with 0.1 μM (final concentration) of [^3H]-dopamine during the latter 30 minutes of the 60-minute incubation period. Each slice was transferred to a glass superfusion chamber maintained at 34° C. and superfused (1 ml/min) with Krebs' buffer containing nomifensine (10 μM) and pargyline (10 μM) to inhibit [^3H]-dopamine reuptake after release into the extracellular space, ensuring that [^3H]-overflow primarily represented [^3H]-dopamine. Sample collection (5-minute; 5 mL) began after 60 minutes of superfusion. […] At the end of the experiment, each slice was solubilized, and the [^3H]-content of the tissue determined. Release during each minute was normalized for total tissue [^3H]-content. Analog-induced intrinsic activity and inhibitory activity were determined using slices from the same rat (repeated-measures design).
The amount of [^3H] in each sample was calculated by dividing the total [^3H] collected in each sample by the total in the tissue at the time of sample collection (defined as fractional release). […] Data were analyzed by weighted, least squares regression analysis of the sigmoidal concentration-effect curves to obtain EC50 and IC50 values.
Striatal slices (500 μm, 4-6 mg) were incubated for 30 minutes in Krebs' buffer (in mM: 118 NaCl, 4.7 KCl, 1.2 MgCl2, 1 NaH2PO4, 1.3 CaCl2, 11.1 glucose, 25 NaHCO3, 0.11 L-ascorbic acid and 0.004 disodium EDTA, pH 7.4, saturated with 95% O2/5% CO2) in a metabolic shaker at 34° C. Slices were incubated with 0.1 μM (final concentration) [^3H]DA during the latter 30 minutes of the 60-minute incubation period. Each slice was transferred to a glass superfusion chamber maintained at 34° C. and superfused (1 ml/min) with Krebs' buffer containing nomifensine (10 μM) and pargyline (10 μM) to inhibit [^3H]DA reuptake and metabolism, respectively, after release into the extracellular space, ensuring that [^3H]overflow primarily represents [^3H]DA. Sample collection (5-minute; 5 ml) began after 60 minutes of superfusion. […] Thus, the ability of these analogs to elicit intrinsic activity (evoke [^3H]DA overflow) was determined. At the end of the experiment, each slice was solubilized and [^3H]content of the tissue determined. Release during each minute was normalized for total [^3H]content of the slice. Analog-induced intrinsic activity and inhibitory activity were determined using slices from the same rat (repeated-measures design).
Fractional release was calculated by dividing the total tritium collected in each sample by the total tritium in the tissue at the time of sample collection. […] Typically, data were analyzed by weighted, least squares regression analysis of sigmoidal concentration-effect curves to obtain EC50 and IC50 values.
A further experiment has as its target α4β2* nAChRs (Rattus norvegicus, UniProt P09483+P12390).
Experiment [6] deals with nAChR subtypes mediating nicotine-evoked DA release. Briefly: Analog-evoked [^3H]DA overflow (intrinsic activity) from superfused striatal slices. The format is cell-based, rat.
Experiment [7] has as its target T2, α7-type neuronal nicotinic acetylcholine receptors. Kind of experiment: biochemical. As to conditions: rat brain membranes, 2.5 nM [^3H]-MLA; read-out: Ki, [^3H]MLA binding.
Experiment [8] has as its target T3, α7* nAChRs. Briefly: biochemical.
Method: as §1, §2, §3
For experiment [9], the target named is blood-brain barrier choline transporter. It counts as in vivo, rat. As to conditions: read-out: apparent Ki, inhibition of [^3H]-choline uptake into brain. On the procedure:
Blood-brain barrier choline transporter affinity assays. Quaternary ammonium analogs were evaluated for their ability to inhibit [^3H]-choline uptake into brain providing an indication of the ability of these analogs to interact with the choline transporter. These assays were conducted using the in situ rat brain perfusion method of Takasato, et al., Am. J. Physiol. 1984, 247, 484, as modified by Allen and Smith, J. Neurochem., 2001, 76, 1032. […] Ki values were compared by ANOVA followed by Bonferoni's multiple comparisons test to determine if an analog inhibits [^3H]-choline uptake.
Analog affinity for, and transport by, the blood-brain barrier choline transporter.

Where [10] appears, read: read-out: IC50, inhibition of nicotine-evoked [^3H]dopamine release/overflow.
Where [11] appears, read: read-out: Nicotine-evoked [^3H]DA Overflow IC50, Table 11.
The mark [12] stands for this setting: read-out: [^3H]Nicotine Binding Ki, Table 11.

Sequence of α4β2* nAChRs (P09483 31-630): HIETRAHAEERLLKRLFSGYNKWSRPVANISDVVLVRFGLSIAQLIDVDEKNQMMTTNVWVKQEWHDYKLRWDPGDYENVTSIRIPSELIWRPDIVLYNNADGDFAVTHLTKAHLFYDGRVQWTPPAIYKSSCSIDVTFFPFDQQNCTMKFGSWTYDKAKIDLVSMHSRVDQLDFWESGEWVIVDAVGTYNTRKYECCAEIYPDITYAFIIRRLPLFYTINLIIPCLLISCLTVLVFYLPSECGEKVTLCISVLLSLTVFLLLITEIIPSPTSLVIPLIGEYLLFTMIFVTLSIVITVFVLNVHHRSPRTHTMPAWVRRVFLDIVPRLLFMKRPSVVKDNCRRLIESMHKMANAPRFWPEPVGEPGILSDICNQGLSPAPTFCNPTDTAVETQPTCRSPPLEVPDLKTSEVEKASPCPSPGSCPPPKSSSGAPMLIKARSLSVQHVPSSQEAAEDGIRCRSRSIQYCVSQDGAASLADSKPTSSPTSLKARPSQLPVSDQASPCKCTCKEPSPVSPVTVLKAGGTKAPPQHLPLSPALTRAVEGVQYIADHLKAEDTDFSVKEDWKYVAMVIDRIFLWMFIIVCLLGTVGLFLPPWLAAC
Sequence of α4β2* nAChRs (P12390 25-500): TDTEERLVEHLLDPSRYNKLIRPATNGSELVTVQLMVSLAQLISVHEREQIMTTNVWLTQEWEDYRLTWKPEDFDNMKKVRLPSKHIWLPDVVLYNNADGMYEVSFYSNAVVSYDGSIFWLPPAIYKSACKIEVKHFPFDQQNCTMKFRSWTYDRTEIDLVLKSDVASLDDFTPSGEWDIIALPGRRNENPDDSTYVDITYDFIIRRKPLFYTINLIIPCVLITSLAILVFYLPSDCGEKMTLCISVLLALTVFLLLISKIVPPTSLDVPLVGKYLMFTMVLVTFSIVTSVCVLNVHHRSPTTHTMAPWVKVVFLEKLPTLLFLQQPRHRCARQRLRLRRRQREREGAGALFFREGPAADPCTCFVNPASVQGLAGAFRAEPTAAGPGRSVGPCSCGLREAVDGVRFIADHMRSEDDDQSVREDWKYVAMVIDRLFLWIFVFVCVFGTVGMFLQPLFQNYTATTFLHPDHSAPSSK
T1 sequence (P09483 31-630): as the sequence (P09483 31-630) above
T1 sequence (P12390 25-500): as the sequence (P12390 25-500) above
T3 sequence (Q05941 23-502): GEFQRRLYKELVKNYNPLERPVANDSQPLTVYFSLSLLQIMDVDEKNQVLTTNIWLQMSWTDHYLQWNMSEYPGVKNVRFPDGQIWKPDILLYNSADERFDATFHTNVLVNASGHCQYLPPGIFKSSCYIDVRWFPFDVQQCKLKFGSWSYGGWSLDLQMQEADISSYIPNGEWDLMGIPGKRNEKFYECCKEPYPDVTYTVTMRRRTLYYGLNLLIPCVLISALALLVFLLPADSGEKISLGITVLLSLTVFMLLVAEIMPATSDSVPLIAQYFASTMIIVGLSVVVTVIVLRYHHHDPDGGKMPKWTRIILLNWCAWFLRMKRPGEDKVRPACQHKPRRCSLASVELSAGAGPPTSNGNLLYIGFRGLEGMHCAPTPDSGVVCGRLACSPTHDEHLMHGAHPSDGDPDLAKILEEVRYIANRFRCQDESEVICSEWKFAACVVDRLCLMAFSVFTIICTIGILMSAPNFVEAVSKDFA
T2 sequence (Q05941 23-502): as above
Method for α4β2* nAChRs: as §1, §2, §3

Turning to “N,N′-Dodecane-1,12-diyl-bis-picolinium Dibromide [bPiDDB]”, the Ki is 33 µM in experiment [1]; greater than 100 µM in [3] (rat brain membranes, […] [^3H]-MLA, read-out: Ki, [^3H]MLA binding); greater than 100 µM in experiment [^3H]DA Uptake; greater than 100 µM on α7* nAChRs [4] (Table 11); 49 µM on α4β2* nAChRs (read-out: [^3H]Nicotine Binding Ki, Table 10, mean (standard error)); 48.6 ± 17.2 µM at α4β2* nAChRs (setting [12]). In addition, the IC50 in experiment [2] is 0.005 µM; in experiment [5] (setting [10]), 0.005 µM; in experiment [5] (read-out: Nicotine-evoked [^3H]DA Overflow IC50, Table 10, mean (standard error)), 0.005 µM; in [5] (setting [11]) it was 0.005 ± 0.003 µM. In addition, in [5], the “affinity for nAChR subtype mediating nicotine-evoked [^3H]DA overflow compared to α4β2* and α7* nAChRs” value was 4-5 orders of magnitude. Moreover, the “maximal inhibition (Imax) of nicotine-evoked [^3H]DA overflow” value in experiment [5] came out at 60%. Moreover, the “potency relative to DHβE in inhibiting nicotine-evoked [^3H]DA overflow” value in experiment [5] was “approximately 320 fold”.

In the case of `CCCCCCCCCCCC[n+]1cccc(C)c1.[I-]` [NDDPiI], the “concentration evoking [^3H]DA overflow (intrinsic activity)” value in experiment [6] is no less than 1.0 µM. In addition, in [5], the “maximal inhibition (Imax) of nicotine-evoked [^3H]DA overflow” value was found to be 63%. Also, the IC50 in [5] (setting [10]) was 0.03 µM.

With `[Br-].[Br-].c1cc[n+](CCCCCCCCCCCC[n+]2ccccc2)cc1` [bPDDB, N,N′-Dodecane-1,12-diyl-bis-pyridinium Dibromide], the Ki is 35.6 µM in experiment [7]; 9.14 µM in experiment [1]; greater than 100 µM in experiment [^3H]DA Uptake; 33 µM at α7* nAChRs [4] (Table 7, mean (standard error)); 33 ± 4.6 µM at α7* nAChRs [4] (Table 11); 9.15 µM on α4β2* nAChRs (read-out: [^3H]Nicotine Binding Ki, Table 7, mean (standard error)). The Ki on α4β2* nAChRs (setting [12]) is 9.15 ± 0.17 µM. In addition, the IC50 in experiment [2] came to 1 µM; in experiment [5] (read-out: Nicotine-evoked [^3H]DA Overflow IC50, Table 7, mean (standard error)) it was 1 µM; in experiment [5] (setting [11]) it was 1 ± 0.38 µM. In addition, the “binding affinity in the [^3H]MLA assay” value in experiment [3] is on record as “moderate binding affinity”.

Take `CCCCCCCCCC[n+]1cccc(C2CCCN2C)c1` (stereo not drawn) [NDNI]: the Ki is greater than 100 µM in [7]; 0.11 µM in [1]; greater than 100 µM at α7* nAChRs [8]; 0.09 µM at α4β2* nAChRs ([^3H]Nicotine Binding Ki, Table 4, mean (95% confidence interval)); roughly 0.09 µM at α4β2* nAChRs (affinity for [^3H]-nicotine binding sites); 27 µM in [9]. Besides, in [2], the IC50 is greater than 100 µM. For the same compound, the “inhibitory activity at the nAChR subtype mediating nicotine-evoked dopamine release” value in experiment [5] is reported as “does not exhibit inhibitory activity”. The “mode of interaction with the high affinity [^3H]-nicotine binding site (Scatchard analyses)” value at α4β2* nAChRs (no change in Bmax) is listed as “competitive manner”.

The record behind these values is patent publication US20080287490A1, “Bis-pyridino containing compounds for the use in the treatment of CNS pathologies” (UNIVERSITY OF KENTUCKY RESEARCH FOUNDATION, priority 2005, published 2008).
